Three compounds from EP4600263A1, “KERATIN YK93-9, PREPARATION METHOD THEREFOR, PHARMACEUTICAL COMPOSITION THEREOF, AND USE THEREOF” (INSTITUTE OF MATERIA MEDICA, CHINESE ACADEMY OF MEDICAL …, priority 2022, dated 2024) can be followed below.

In series [1] the test system is mouse prostatic hyperplasia model. Nature of the series: pharmacodynamic test on mouse prostatic hyperplasia model (subcutaneous propionate testosterone). In kind it is in vivo, Kunming mice. The following applies: 30 days; for Average weight: male Kunming mice; for prostate index: wet weight of the prostate (mg)/body weight of the mouse (g). The method, then:
• Animals: Male Kunming mice, weight: 18-20 grams • Drugs: propionate testosterone injection (Ningbo Second Hormon Factory), finasteride (Merck Sharp & Dohme, MSD) • Instruments: electronic balance • Experiment grouping: Normal control group; • Model group: Androgen loading Model; • Positive control group: finasteride (1mg/kg) group; finasteride (3 mg/kg) group; • YK93-9 (0.5g/kg) group.
Preparation of experimental animals: The experimental animals were adapted to the experimental environment (temperature 22°C±2°C, relative humidity 50%±2%) for 1 day.
Subcutaneous injection of propionate testosterone to replicate mice prostatic hyperplasia model: Mice were randomly grouped 10 in each group before the model being established. Propionate testosterone (0.01mg/kg) in soybean oil was injected subcutaneously, once a day for 30 consecutive days. Mice in the normal control group were injected subcutaneously with an equal volume of sodium carboxymethyl cellulose. Immediately after the model was established, finasteride 1mg/kg, finasteride 3m g/kg, or YK93-9 0.5g/kg were orally administered. Mice were weighed on the next day. After 30 days of administration, mice were weighed, executed. The prostate was excised through a median incision in the lower abdomen, the wet weight was weighed, and the prostate index was calculated by the wet weight of the prostate (mg)/body weight of the mouse (g).
The average value, standard deviation and standard error of the prostate index in each group were calculated. The data from the groups were compared with each other by T.TEST, and P<0.05 was considered as a significant difference.

Series [2] relates to acetic acid-induced writhing of mice. Nature of the series: pharmacodynamic test on mouse pain model (acetic acid-induced writhing). In kind it is in vivo, Kunming mice. The following applies: Tramadol Hydrochloride 50mg/kg; 1% acetic acid intraperitoneally, writhing within 15 minutes. As for the experimental part:
• Animals: Male Kunming mice; • Drugs: Tramadol Hydrochloride Sustained Release Tablets, Glacial acetic acid, YK93-9; • Instruments: electronic balance, timer • Experiment grouping: • Normal control group; • Positive control group: Tramadol Hydrochloride group; • Protein YK93-9, (0.5g/kg) group.
Mice in the YK93-9 (0.5g/kg) group were administered by gavage, while mice in the model group were given an equal volume of CMC-Na once a day for 7 consecutive days. 30 minutes after the last administration, 1% acetic acid was administered intraperitoneally, and the writhing times of mice within 15 minutes was recorded, and the inhibition rate of drug-induced writhing reaction was calculated. The observation criteria were concave abdominal cavity, extended hind limbs, and raised buttocks.
The inhibition rate was calculated by (Mean number of writhing reactions in the normal control group - Mean number of writhing reactions in the treatment group)/Mean number of writhing reactions in the normal control group *100%.

[3] abbreviates: cyclophosphamide 0.1 g/kg group, before administration.
[4] abbreviates: cyclophosphamide 0.1 g/kg intraperitoneally, single time.
Setting [5] is: cyclophosphamide 0.1 g/kg intraperitoneally, single time, vs normal control group.
The mark [6] stands for this setting: cyclophosphamide 100mg/kg, vs normal control group, P<0.05.
Setting [7] is: cyclophosphamide 0.1 g/kg once a week.

Where a name gives a salt, the structure may show the parent alone.

Description for B16F10 melanoma: Subcutaneous inoculation of B16F10 cell suspension to replicate a mouse melanoma model: Under sterile conditions, the tumor block was removed, ground into tumor fluid, the concentration was adjusted with physiological saline to 2.58 × 10^6 /ml, and 0.2 ml was taken to evenly inoculate subcutaneously on the armpit back of mice. On the next day, the animals were randomly grouped and administration began (recorded as Day 0). […] On the day of treatment, weight was measured, 20µL of blood was obtained by taking blood from the eye socket and the blood routine analysis was performed, the tumor block was peeled off, weighed and photographed, and the tumor suppression rate was calculated.
(§1) The tumor suppression rate [(The average weight of the tumor in the normal control group - the average weight of the tumor in the experimental group) / The average weight of the tumor in the normal control group × 100 %] and average value, standard deviation and standard errors of tumor weight were calculated. The data from the groups were compared with each other by T.TEST, and P<0.05 was considered as a significant difference.
Description for EL-4 lymphoma: Subcutaneous inoculation of EL-4 cell suspension to replicate a mouse lymphoma model: The EL-4 tumor tissue was ground into a suspension using a glass homogenizer, the tumor suspension was aspirated with a syringe, the number of live cells was calculated, the cell concentration was adjusted to 2.0*10^6/ml with physiological saline, and then the suspension was injected into the left armpit of mice with 0.2 ml/mouse. […] On the day of treatment, weight was measured, 20µl of blood was obtained from the orbital blood and the routine blood analysis was performed. The tumor blocks were stripped, weighed and photographed, and the tumor suppression rate was calculated.
as §1
Description for Lewis lung cancer: Subcutaneous inoculation of Lewis cell suspension to replicate mouse breast cancer model: The Lewis tumor tissue was ground into a suspension with a glass homogenizer, the tumor suspension was aspirated with a syringe, the number of live cells was calculated, the concentration of the cells was adjusted to 2.6*10^6/ml with physiological saline, and then the suspension was injected to the left armpit of the mouse with 0.2 ml/mouse. […] On the day of the treatment, the weight was measured, 20µl of blood was obtained from the orbital blood and the routine blood analysis was performed. The tumor blocks were stripped, weighed and photographed, and the tumor suppression rate was calculated.
The tumor suppression rate [(The average weight of the tumor in the normal control group - the average weight of the tumor in the experimental group) / The average weight of the tumor in the normal control group × 100 %] and the average value, standard deviation and standard errors of tumor weight were calculated . The data from the groups were compared with each other by T.TEST, and P<0.05 was considered as a significant difference.

With `O=P1(N(CCCl)CCCl)NCCCO1` (stereo not drawn) [cyclophosphamide, Cyclophosphamide], the figures for the “Change of weight Before administration” value in the series with Lewis lung cancer (setting [3]) and in the series with B16F10 melanoma (setting [3]) were 17.60 ± 0.59 g and 18.97 ± 0.55 g, respectively. Also, the entries for the “Change of weight After administration” value in the series on Lewis lung cancer (setting [4]) and in the series with B16F10 melanoma (setting [7]) were 19.95 ± 0.77 g and 19.07 ± 1.46 g, respectively. For the same compound, the Tumor weight in the series with Lewis lung cancer (setting [4]) was 0.14 ± 0.09 g; in the series with EL-4 lymphoma (setting [4]), 0.12 ± 0.03 g; with B16F10 melanoma (setting [7]) it was 0.26 ± 0.11 g. In addition, the Tumor suppression with Lewis lung cancer (setting [5]) was 95.35%; in the series on EL-4 lymphoma (setting [5]), 95.67%; with B16F10 melanoma (cyclophosphamide 0.1 g/kg once a week, vs normal control group), 85.82%. Also, the “leukocytes (routine blood analysis)” value in the series on EL-4 lymphoma (setting [6]) was “significantly reduced”. In the series with EL-4 lymphoma (setting [6]), the “lymphocytes (routine blood analysis)” value is recorded as “significantly reduced”. In addition, the “monocytes (routine blood analysis)” value with EL-4 lymphoma (setting [6]) was “significantly reduced”. Moreover, in the series with EL-4 lymphoma (setting [6]), the “neutrophils (routine blood analysis)” value was “significantly reduced”.
`CC(C)(C)NC(=O)[C@H]1CC[C@H]2[C@@H]3CC[C@H]4NC(=O)C=C[C@]4(C)[C@H]3CC[C@]12C` [finasteride]: in series [1] (finasteride 1mg/kg orally), the “wet weight of the prostate” value was determined as 31.8 ± 4.8 mg, the Average weight amounted to 43.5 ± 3.5 g and the prostate index is 0.75±0.12. In addition, in series [1] (finasteride 3mg/kg orally), the “wet weight of the prostate” value turned out to be 29.2 ± 1.4 mg, the Average weight was determined as 40.7 ± 3.1 g and the prostate index was determined as 0.72±0.08.
In series [2], `COc1cccc(C2(O)CCCCC2CN(C)C)c1` (stereo not drawn) [Tramadol Hydrochloride] returned a Number of writhing of 0.0±0.00.
